Source: US20050152842A1, “Poly (L-glutamic acid) paramagnetic material complex and use as a biodegradable MRI contrast agent” (priority 2003, published 2005)

How the values were obtained:
Cathepsin B = Cathepsin B (Homo sapiens, UniProt P07858)
Method: PG-Hex-BzDTPA-Gd was dissolved in PBS buffer (pH 5) at a concentration of 5.3 mg/ml. Cathepsin B, which is able to degrade the complex, was added to the solution to a final concentration of 10 units/ml. The degradation was monitored at different time intervals using a gel permeation chromatography (GPC) system equipped with an TSK G3000PW column (TosoHaas), a Waters 515 HPLC pump, and a Viscotek E-Z^pro triple detector array. The system was eluted with PBS buffer containing 0.1% LiBr (pH 7.4) at a flow rate of 1 ml/min.

[1] = MRI studies of vascular enhancement and intravascular retention in mice; type: in vivo; conditions: dose of 0.1 mmol/kg, intravenous
Method: For MRI studies using complexes prepared as described in the earlier examples, mice were anesthetized with 1-2% isoflurane in a 1 L/min O2 flow and place prone within a custom sled. A custom catheter made from 2 Fr silicon tubing and a 27 gauge needle was inserted in the tail vein of the mouse. Gd-DTPA ([…]) or PG-Hex-DTPA-Gd (0.004 mmol Gd/ml, 0.02 mmol Gd/kg) was injected through the catheter and the catheter flushed with normal saline. Two-dimensional coronal section spin-echo images were obtained before and at 2 hours and 24 hours after contrast agent injection using a 2.5 cm quadrature birdcage coil on a 1.5 T Sigma LX MR scanner (GE Medical Systems, WI). Six 1.5 mm contiguous sections were obtained using a 6 cm field-of-view, a 256×192 acquisition matrix and 4 averages. Similar studies were performed with PEG/PG-Hex-DTPA-Gd.
A fast spoiled gradient-echo sequence was used to obtain the data from 8 anatomic sections with 7.1 s temporal resolution. Other acquisition parameters were echo time: 1.4 ms, repetition time: 40 ms, flip angle: 35°, acquisition matrix size: 128×128. […] Such long intravascular retention times are useful for contrast-enhanced MR angiography, for assessment of microvascular volume, and for characterizing changes in permeability of highly “leaky” vasculature. Retention of the contrast in the tumor was also noted in the same time period (FIG. 6B).

[2] = 1.5 Tesla in phosphate-buffered saline; from Unger et al. 1999; cited from earlier work

Row | Compound | Time in which the polymer was almost completely degraded (Cathepsin B) | Degradation on incubation with Cathepsin B (in words) (Cathepsin B; pH 5) | Vascular enhancement 2 hours after injection [1] | Relaxivity R1 [2]
1 | poly(L-glutamic acid) [PG] | 100 min | rapidly degraded |  | 
2 | O=C([O-])CN(CCN(CC(=O)[O-])CC(=O)O)CCN(CC(=O)[O-])CC(=O)O.[Gd+3] [DTPA-Gd] |  |  | not detected | 4.1 mM^−1Sec^−1
